Consider 20 compounds from patent US20180368410A1, “MICROBIOCIDAL OXADIAZOLE DERIVATIVES” (SYNGENTA PARTICIPATIONS AG, priority 2015, published 2018).

Experiment [1] has as its system Puccinia recondita f. Sp. Tritici. The experiment is described as follows: Puccinia recondita f. sp. tritici / wheat / leaf disc preventative (brown rust). The class given is in vivo, Puccinia recondita f. sp. tritici on wheat cv. Kanzler. Particulars: foliar, 200 ppm in the applied formulation, inoculated 1 day after application, assessed 7 to 9 days after application, vs untreated control leaf disks, read-out: disease control. The procedure: Leaf disks or leaf segments of various plant species are cut from plants grown in a greenhouse. The cut leaf disks or segments are placed in multiwell plates (24-well format) onto water agar. The leaf disks are sprayed with a test solution before (preventative) or after (curative) inoculation. Compounds to be tested are prepared as DMSO solutions (max. 10 mg/ml) which are diluted to the appropriate concentration with 0.025% Tween20 just before spraying. The inoculated leaf disks or segments are incubated under defined conditions (temperature, relative humidity, light, etc.) according to the respective test system. A single evaluation of disease level is carried out 3 to 14 days after inoculation, depending on the pathosystem. Percent disease control relative to the untreated check leaf disks or segments is then calculated. Wheat leaf segments cv. Kanzler were placed on agar in multiwell plates (24-well format) and sprayed with the formulated test compound diluted in water. The leaf disks were inoculated with a spore suspension of the fungus 1 day after application. The inoculated leaf segments were incubated at 19′C and 75% relative humidity (rh) under a light regime of 12 hours light/12 hours darkness in a climate cabinet and the activity of a compound was assessed as percent disease control compared to untreated when an appropriate level of disease damage appears in untreated check leaf segments (7 to 9 days after application). The following compounds at 200 ppm in the applied formulation give at least 80% disease control in this test when compared to untreated control leaf disks under the same conditions, which show extensive disease development.

For experiment [2], the system named is Glomerella Lacenarium (Colletotrichum lacenarium). The experiment is described as follows: Glomerella lagenarium (Colletotrichum lagenarium) liquid culture / cucumber / preventative (anthracnose). The settings on record: 20 ppm in the applied formulation, liquid culture in PDB, 24° C., inhibition of growth measured photometrically 3 to 4 days after application, vs untreated control, read-out: disease control. Type of experiment: cell-based. The method, then:
Mycelia fragments or conidia suspensions of a fungus prepared either freshly from liquid cultures of the fungus or from cryogenic storage, are directly mixed into nutrient broth. DMSO solutions of the test compound (max. 10 mg/ml) are diluted with 0.025% Tween20 by a factor of 50 and 10 μl of this solution is pipetted into a microtiter plate (96-well format). The nutrient broth containing the fungal spores/mycelia fragments is then added to give an end concentration of the tested compound. The test plates are incubated in the dark at 24° C. and 96% relative humidity. The inhibition of fungal growth is determined photometrically after 2 to 7 days, depending on the pathosystem, and percent antifungal activity relative to the untreated check is calculated.
Conidia of the fungus from cryogenic storage are directly mixed into nutrient broth (PDB—potato dextrose broth). After placing a (DMSO) solution of test compound into a microtiter plate (96-well format), the nutrient broth containing the fungal spores is added. The test plates are incubated at 24° C. and the inhibition of growth is measured photometrically 3 to 4 days after application.
The following compounds at 20 ppm in the applied formulation give at least 80% disease control in this test when compared to untreated control under the same conditions, which show extensive disease development.

Experiment [3] deals with Puccinia recondita f. Sp. Triticil. The experiment is described as follows: Puccinia recondita f. sp. tritici / wheat / leaf disc curative (brown rust). The class given is in vivo, Puccinia recondita f. sp. tritici on wheat cv. Kanzler. The settings on record: foliar, 200 ppm in the applied formulation, applied 1 day after inoculation, assessed 6 to 8 days after application, vs untreated control leaf disks, read-out: disease control. The procedure: Leaf disks or leaf segments of various plant species are cut from plants grown in a greenhouse. The cut leaf disks or segments are placed in multiwell plates (24-well format) onto water agar. The leaf disks are sprayed with a test solution before (preventative) or after (curative) inoculation. Compounds to be tested are prepared as DMSO solutions (max. 10 mg/ml) which are diluted to the appropriate concentration with 0.025% Tween20 just before spraying. The inoculated leaf disks or segments are incubated under defined conditions (temperature, relative humidity, light, etc.) according to the respective test system. A single evaluation of disease level is carried out 3 to 14 days after inoculation, depending on the pathosystem. Percent disease control relative to the untreated check leaf disks or segments is then calculated.
Wheat leaf segments cv. Kanzler are placed on agar in multiwell plates (24-well format). The leaf segments are then inoculated with a spore suspension of the fungus. Plates were stored in darkness at 19° C. and 75% relative humidity. The formulated test compound diluted in water was applied 1 day after inoculation. The leaf segments were incubated at 19° C. and 75% relative humidity under a light regime of 12 hours light/12 hours darkness in a climate cabinet and the activity of a compound was assessed as percent disease control compared to untreated when an appropriate level of disease damage appears in untreated check leaf segments (6 to 8 days after application).
The following compounds at 200 ppm in the applied formulation give at least 80% disease control in this test when compared to untreated control leaf disks under the same conditions, which show extensive disease development.

For the compound `COc1ccc(C2(C(=O)NCc3ccc(-c4noc(C(F)(F)F)n4)cc3)CC2)cc1` [Compound 1.38, 1-(4-methoxyphenyl)-N-[[4-[5-(trifluoromethyl)-1,2,4-oxadiazol-3-yl]phenyl]methyl] cyclopropanecarboxamide], the pest or weed control at 200 ppm in experiment [1] was at least 80%. The inhibition of growth at 20 ppm in experiment [2] was at least 80%.
Consider `Cc1cc(C(=O)NCc2ccc(-c3noc(C(F)(F)F)n3)cc2)c(C)o1` [Compound 1.41, 2,5-dimethyl-N-[[4-[5-(trifluoromethyl)-1,2,4-oxadiazol-3-yl]phenyl]methyl]furan-3-carboxamide], for which the pest or weed control at 200 ppm in experiment [1] and in experiment [3] was at least 80% each time.
Consider `O=C(NCc1ccc(-c2noc(C(F)(F)F)n2)cc1)c1c(Cl)cccc1Cl` [Compound 1.42, 2,6-dichloro-N-[[4-[5-(trifluoromethyl)-1,2,4-oxadiazol-3-yl]phenyl]methyl]benzamide], for which the pest or weed control at 200 ppm in experiment [1] is at least 80%.
For the compound `O=C(NCc1ccc(-c2noc(C(F)(F)F)n2)cc1)c1ccccc1C(F)(F)F` [Compound 1.43, 2-(trifluoromethyl)-N-[[4-[5-(trifluoromethyl)-1,2,4-oxadiazol-3-yl]phenyl]methyl]benzamide], in experiment [1], the pest or weed control at 200 ppm was at least 80%.
For the compound `O=C(NCc1ccc(-c2noc(C(F)(F)F)n2)cn1)c1ccccc1Cl` [Compound 1.44, 2-chloro-N-[[5-[5-(trifluoromethyl)-1,2,4-oxadiazol-3-yl]-2-pyridyl]methyl]benzamide], the pest or weed control at 200 ppm in experiment [1] and in experiment [3] was at least 80% in each case. Moreover, the inhibition of growth at 20 ppm in experiment [2] is at least 80%.
Turning to `O=C(NCc1ccc(-c2noc(C(F)(F)F)n2)cn1)C1CC1` [Compound 1.45, N-[[5-[5-(trifluoromethyl)-1,2,4-oxadiazol-3-yl]-2-pyridyl]methyl] cyclopropanecarboxamide], the pest or weed control at 200 ppm in experiment [1] and in experiment [3] was at least 80% throughout. Moreover, in experiment [2], the inhibition of growth at 20 ppm was at least 80%.
`O=C(NCc1ccc(-c2noc(C(F)(F)F)n2)cn1)C1CCCO1` (stereo not shown) [Compound 1.46, N-[[5-[5-(trifluoromethyl)-1,2,4-oxadiazol-3-yl]-2-pyridyl]methyl]tetrahydrofuran-2-carboxamide]: the pest or weed control at 200 ppm in experiment [1] and in experiment [3] was at least 80% in each case. Moreover, the inhibition of growth at 20 ppm in experiment [2] was at least 80%.
For the compound `O=C(NCc1ccc(-c2noc(C(F)(F)F)n2)cc1F)C1CC1` [Compound 1.47, N-[[2-fluoro-4-[5-(trifluoromethyl)-1,2,4-oxadiazol-3-yl]phenyl]methyl] cyclopropanecarboxamide], the pest or weed control at 200 ppm in experiment [1] and in experiment [3] was at least 80% throughout. Moreover, the inhibition of growth at 20 ppm in experiment [2] was at least 80%.
As to `O=C(NCc1ccc(-c2noc(C(F)(F)F)n2)cc1F)c1ccccc1Cl` [Compound 1.48, 2-chloro-N-[[2-fluoro-4-[5-(trifluoromethyl)-1,2,4-oxadiazol-3-yl]phenyl]methyl]benzamide], in experiment [1], the pest or weed control at 200 ppm was at least 80%. In addition, the inhibition of growth at 20 ppm in experiment [2] is at least 80%.
For `O=C(NCc1ccc(-c2noc(C(F)(F)F)n2)cc1Cl)C1CCCO1` (stereo not shown) [Compound 1.50, N-[[2-chloro-4-[5-(trifluoromethyl)-1,2,4-oxadiazol-3-yl]phenyl]methyl]tetrahydrofuran-2-carboxamide], the pest or weed control at 200 ppm in experiment [1] and in experiment [3] was at least 80% in each case. Further, the inhibition of growth at 20 ppm in experiment [2] is at least 80%.
On to `COc1cc(-c2noc(C(F)(F)F)n2)ccc1CNC(=O)C1CCCO1` (stereo not shown) [Compound 1.51, N-[[2-methoxy-4-[5-(trifluoromethyl)-1,2,4-oxadiazol-3-yl]phenyl]methyl]tetrahydrofuran-2-carboxamide], for which, in experiment [2], the inhibition of growth at 20 ppm is at least 80%.
On the same count and under the same terms, as for `O=C(NCc1ccc(-c2noc(C(F)(F)F)n2)cc1C(F)(F)F)C1CCCO1` (stereo not shown) [Compound 1.52, N-[[2-(trifluoromethyl)-4-[5-(trifluoromethyl)-1,2,4-oxadiazol-3-yl]phenyl]methyl]tetrahydrofuran-2-carboxamide], the figure is at least 80%.
With `O=C(NCc1ccc(-c2noc(C(F)(F)F)n2)cc1F)C1CCC1` [Compound 1.63, N-[[2-fluoro-4-[5-(trifluoromethyl)-1,2,4-oxadiazol-3-yl]phenyl]methyl] cyclobutanecarboxamide], the pest or weed control at 200 ppm in experiment [1] and in experiment [3] was at least 80% in each case. For the same compound, the inhibition of growth at 20 ppm in experiment [2] was at least 80%.
For the compound `O=C(NCc1ccc(-c2noc(C(F)(F)F)n2)c(F)c1)C1CCOC1` (stereo not shown) [Compound 1.68, N-[[3-fluoro-4-[5-(trifluoromethyl)-1,2,4-oxadiazol-3-yl]phenyl]methyl] tetrahydrofuran-3-carboxamide], the pest or weed control at 200 ppm in experiment [1] and in experiment [3] was at least 80% throughout. In addition, in experiment [2], the inhibition of growth at 20 ppm is at least 80%.
As to `O=C(NCc1ccc(-c2noc(C(F)(F)F)n2)cc1F)C1CCOC1` (stereo not shown) [Compound 1.70, N-[[2-fluoro-4-[5-(trifluoromethyl)-1,2,4-oxadiazol-3-yl]phenyl]methyl] tetrahydrofuran-3-carboxamide], the pest or weed control at 200 ppm in experiment [1] and in experiment [3] was at least 80% throughout. Moreover, the inhibition of growth at 20 ppm in experiment [2] was at least 80%.
As to `O=C(CC1CC1)NCc1ccc(-c2noc(C(F)(F)F)n2)cc1Cl` [Compound 1.74, N-[[2-chloro-4-[5-(trifluoromethyl)-1,2,4-oxadiazol-3-yl]phenyl]methyl]-2-cyclopropyl-acetamide], in experiment [2], the inhibition of growth at 20 ppm is at least 80%.
As to `CC1(C(=O)NCc2ccc(-c3noc(C(F)(F)F)n3)cc2Cl)CC1` [Compound 1.79, N-[[2-chloro-4-[5-(trifluoromethyl)-1,2,4-oxadiazol-3-yl]phenyl]methyl]-1-methyl-cyclopropanecarboxamide], in experiment [2], the inhibition of growth at 20 ppm was at least 80%.
Turning to `O=C(NCc1ccc(-c2noc(C(F)(F)F)n2)cc1Cl)C1CC1` [Compound 1.81, N-[[2-chloro-4-[5-(trifluoromethyl)-1,2,4-oxadiazol-3-yl]phenyl]methyl] cyclopropanecarboxamide], in experiment [2], the inhibition of growth at 20 ppm is at least 80%.
`O=C(NCc1ccc(-c2noc(C(F)(F)F)n2)cc1Cl)C1CCOC1` (stereo not shown) [Compound 1.82, N-[[2-chloro-4-[5-(trifluoromethyl)-1,2,4-oxadiazol-3-yl]phenyl]methyl] tetrahydrofuran-3-carboxamide]: the inhibition of growth at 20 ppm in experiment [2] was at least 80%.
As for `CC1(C(=O)NCc2ccc(-c3noc(C(F)(F)F)n3)cc2Cl)COC1` [Compound 1.84, N-[[2-chloro-4-[5-(trifluoromethyl)-1,2,4-oxadiazol-3-yl]phenyl]methyl]-3-methyl-oxetane-3-carboxamide], the pest or weed control at 200 ppm in experiment [1] was at least 80%. The inhibition of growth at 20 ppm in experiment [2] is at least 80%.
